Experimental data as given in patent US4704397A, “Pharmaceutical salts of 4-(9-acridinyl-amino) methanesulfon-m-anisidide” (Warner-Lambert Company, priority 1981, dated 1987).
Like-named read-outs stand apart in the source and are kept apart here.

Assays:
mice = details: studies using mice; cited from earlier work
[1] = assay type: physicochemical; details: warming to room temperature and shaking
Description: The salts of the present invention allow one to prepare solutions of m-AMSA without the aid of dimethylacetamide. Depending upon the salt, concentration and temperature,standing may result in certain of the solutions of salts forming gels. However, a salt need only remain in solution for a period long enough for it to be administered to a patient.
Stability of Preferred --m-AMSA Salts

Compound	activity in treating mammals (mice)	return of gelled solution to fluid state ([1]; 10 mg/ml after storing at 5 °C)	return of gelled solution to fluid state ([1]; lower concentrations gelled at 5 °C)
COc1cc(NS(C)(=O)=O)ccc1Nc1c2ccccc2nc2ccccc12 [m-AMSA, 4'-(9-acridinylamino)methanesulfon-m-anisidide]	high degree of activity		
COc1cc(NS(C)(=O)=O)ccc1Nc1c2ccccc2nc2ccccc12 [gluconate, 4'-(9-acridinylamino)methanesulfon-m-anisidide D-gluconate]		could not be achieved	could be returned to a fluid state
